Results published in patent US6750228B1, “Aromatic sulfone hydroxamic acid metalloprotease inhibitor” (priority 1997, dated 2004).
Counter-ions that a name gives are not always drawn. Like-named read-outs stand apart in the source and are kept apart here.

How the values were obtained:
Assay in all cases: biochemical
MMP-1 = target: T1, MMP-1 (Homo sapiens, UniProt P03956); details: read-out: MMP-1 IC50
T1 construct: made in house; host or cells: transfected HT-1080 cells (provided by Dr. Harold Welgus, Washington University)
T1 sequence (P03956 100-469): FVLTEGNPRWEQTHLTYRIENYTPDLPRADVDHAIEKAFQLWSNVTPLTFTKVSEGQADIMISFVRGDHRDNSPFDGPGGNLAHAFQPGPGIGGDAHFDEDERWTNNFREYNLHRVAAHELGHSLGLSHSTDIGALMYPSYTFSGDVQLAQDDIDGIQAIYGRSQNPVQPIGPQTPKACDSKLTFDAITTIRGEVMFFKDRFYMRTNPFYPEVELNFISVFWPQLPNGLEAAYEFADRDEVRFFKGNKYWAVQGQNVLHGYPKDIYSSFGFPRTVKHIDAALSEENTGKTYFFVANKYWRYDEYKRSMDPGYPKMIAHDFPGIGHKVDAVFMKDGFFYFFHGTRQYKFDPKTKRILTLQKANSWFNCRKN
Outline: (§1)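 Assay buffer 100 mM Tris-HCl, 100 mM NaCl, 10 mM CaCl2, pH 7.5. Activated MMP + inhibitor, 5 min RT; then methoxycoumarin peptide substrate, 4 μM final. Readout fluorescence; IC50 calculated.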

MMP-2 = target: T2, MMP-2 (Homo sapiens, UniProt P08253)
T2 construct: made in house; provided by Dr. Gregory Goldberg, Washington University
T2 sequence (P08253 110-660): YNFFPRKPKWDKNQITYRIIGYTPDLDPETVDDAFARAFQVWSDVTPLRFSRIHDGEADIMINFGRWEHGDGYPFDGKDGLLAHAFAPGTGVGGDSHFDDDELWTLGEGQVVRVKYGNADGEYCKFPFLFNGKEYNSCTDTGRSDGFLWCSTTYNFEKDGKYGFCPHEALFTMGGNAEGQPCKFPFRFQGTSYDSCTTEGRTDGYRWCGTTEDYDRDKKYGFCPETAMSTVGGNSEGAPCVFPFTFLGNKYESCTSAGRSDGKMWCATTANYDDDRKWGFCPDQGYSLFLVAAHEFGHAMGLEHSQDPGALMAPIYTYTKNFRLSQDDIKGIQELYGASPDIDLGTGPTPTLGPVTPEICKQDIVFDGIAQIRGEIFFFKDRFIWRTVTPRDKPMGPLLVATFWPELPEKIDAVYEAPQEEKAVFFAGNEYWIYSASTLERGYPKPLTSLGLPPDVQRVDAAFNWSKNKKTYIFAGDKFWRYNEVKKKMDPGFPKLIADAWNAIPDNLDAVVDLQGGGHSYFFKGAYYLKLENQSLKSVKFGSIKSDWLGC
Outline: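 APMA- or trypsin-activated human MMPs (MMP-1 from transfected HT-1080 cells, MMP-2 from transfected cells) preincubated with inhibitor in 1% DMSO at room temperature, then 4 μM MCA-Pro-Leu-Gly-Leu-Dpa-Ala-Arg-NH2 added in Tris/NaCl/CaCl2 buffer pH 7.5. IC50 from fluorescence reduction versus inhibitor concentration.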

MMP-13 = target: T3, MMP-13 (Homo sapiens, UniProt P45452)
T3 construct: made in house; host or cells: baculovirus / insect cells
Outline: as §1

[1] = recombinant human MMP-1, MCA peptide substrate 4 μM, pH 7.5, room temperature
[2] = recombinant human MMP-2, MCA peptide substrate 4 μM, pH 7.5, room temperature, read-out: MMP-2 IC50
[3] = recombinant human MMP-13, MCA peptide substrate 4 μM, pH 7.5, room temperature, read-out: MMP-13 IC50

Row | Compound | IC50 (MMP-1; [1]) | IC50 (MMP-2; [2]) | IC50 (MMP-13; [3]) | IC50 (MMP-2; MMP-2 IC50 (nM)) | IC50 (MMP-1) | IC50 (MMP-2; read-out: MMP-2 IC50) | IC50 (MMP-13; MMP-13 IC50 (nM), recombinant human MMP-13, MCA peptide substrate 4 μM, pH 7.5, room temperature) | IC50 (MMP-13; read-out: MMP-13 IC50)
1 | O=C(NO)C1(S(=O)(=O)c2ccc(Oc3ccc(SC(F)(F)F)cc3)cc2)CCNCC1 [Example 231, N-Hydroxy-4-[[4-[4-[(trifluoromethyl)thio]phenoxy]phenyl]-sulfonyl]-4-piperidinecarboxamide, Monohydrochloride] | > 10000 nM | 0.1 nM | 0.2 nM | – | – | – | – | –
2 | O=C(CN1CCCCC1)N1CCC(C(=O)NO)(S(=O)(=O)c2ccc(Oc3ccc(C(F)(F)F)cc3)cc2)CC1 [Example 318] | > 10000 nM | 0.1 nM | 0.3 nM | – | – | – | – | –
3 | O=C(NO)C1(S(=O)(=O)c2ccc(N3CC=C(c4ccccc4C(F)(F)F)CC3)cc2)CCOCC1 [Example 208] | > 10000 nM | 1000 nM | 110 nM | – | – | – | – | –
4 | O=C(NO)C1(S(=O)(=O)c2ccc(N3CCN(c4ccccc4F)CC3)cc2)CCOCC1 [Example 83] | 3100 nM | – | 2.7 nM | 21.1 nM | – | – | – | –
5 | CCOc1ccccc1C1CCN(c2ccc(S(=O)(=O)C3(C(=O)NO)CCOCC3)cc2)CC1 [Example 544] | > 10000 nM | – | 35 nM | 3100 nM | – | – | – | –
6 | O=C(c1ccc(OC(F)(F)F)cc1)N1CCC(C(=O)NO)(S(=O)(=O)c2ccc(Oc3ccc(C(F)(F)F)cc3)cc2)CC1 [Example 140] | > 10000 nM | 0.8 nM | 11.4 nM | – | – | – | – | –
7 | COc1cccc(CO[C@@H]2CCN(c3ccc(S(=O)(=O)C4(C(=O)NO)CCN(C5CC5)CC4)cc3)C2)c1 [Example 398] | > 10000 nM | 70 nM | 7 nM | – | – | – | – | –
8 | COc1ccc(C(=O)C2CCN(c3ccc(S(=O)(=O)C4(C(=O)NO)CCN(c5ccncc5)CC4)cc3)CC2)cc1 [Example 438] | > 10000 nM | 160 nM | 1.4 nM | – | – | – | – | –
9 | COc1cccc(COC2CCC(Oc3ccc(S(=O)(=O)C4(C(=O)NO)CCOCC4)cc3)C2)c1 (stereo not drawn) [Example 694] | > 10000 nM | 23.2 nM | 3.1 nM | – | – | – | – | –
10 | CC1CC(C)CN(C(=O)C2CCN(c3ccc(S(=O)(=O)C4(C(=O)NO)CCN(C(=O)CN5CCCC5CO)CC4)cc3)CC2)C1 (stereo not drawn) [Example 297] | > 10000 nM | > 10000 nM | 34.9 nM | – | – | – | – | –
11 | O=C(c1ccc(C(F)(F)F)c(F)c1)C1CCN(c2ccc(S(=O)(=O)C3(C(=O)NO)CCOCC3)cc2)CC1 [Example 738] | > 10000 nM | 270 nM | 22 nM | – | – | – | – | –
12 | O=C(Nc1ccc(C(F)(F)F)cc1)N1CCC(C(=O)NO)(S(=O)(=O)c2ccc(Oc3ccc(C(F)(F)F)cc3)cc2)CC1 [Example 141] | > 10000 nM | 9 nM | 20 nM | – | – | – | – | –
13 | CN(C)c1cccc(C(=O)C2CCN(c3ccc(S(=O)(=O)C4(C(=O)NO)CCOCC4)cc3)CC2)c1 [Example 790] | > 10000 nM | 700 nM | 4.5 nM | – | – | – | – | –
14 | O=C(c1ccc2ccccc2c1)C1CCN(c2ccc(S(=O)(=O)C3(C(=O)NO)CCN(C4CC4)CC3)cc2)CC1 [Example 393] | > 10000 nM | 427 nM | 4.5 nM | – | – | – | – | –
15 | O=C(C1CCN(c2ccc(S(=O)(=O)C3(C(=O)NO)CCOCC3)cc2)CC1)N1CCN(c2ccncc2)CC1 [Example 37] | – | – | – | – | > 10000 nM | 1750 nM | 30 nM | –
16 | COCCN(CCOC)CC(=O)N1CCC(C(=O)NO)(S(=O)(=O)c2ccc(N3CCC(C(=O)N4CC(C)CC(C)C4)CC3)cc2)CC1 (stereo not drawn) [Example 303] | > 10000 nM | > 10000 nM | 115 nM | – | – | – | – | –
17 | C#CCN1CCC(C(=O)NO)(S(=O)(=O)c2ccc(S(=O)(=O)c3ccccc3)cc2)CC1 [Example 457] | > 10000 nM | 2700 nM | 1800 nM | – | – | – | – | –
18 | O=C(C1CCN(c2ccc(S(=O)(=O)C3(C(=O)NO)CCOCC3)cc2)CC1)N1CCN(c2cccc(Cl)c2)CC1 [Example 43] | – | – | – | – | > 10000 nM | 5000 nM | – | 17.9 nM

Further lines, with some results ahead:

Row | IC50 (MMP-1; [1]) | IC50 (MMP-2; [2]) | IC50 (MMP-13; [3]) | Compound | IC50 (MMP-2; MMP-2 IC50 (nM)) | IC50 (MMP-1) | IC50 (MMP-2; read-out: MMP-2 IC50) | IC50 (MMP-13; MMP-13 IC50 (nM), recombinant human MMP-13, MCA peptide substrate 4 μM, pH 7.5, room temperature) | IC50 (MMP-13; read-out: MMP-13 IC50)
19 | > 10000 nM | 6400 nM | 2700 nM | COC1CCCN(c2ccc(S(=O)(=O)C3(C(=O)NO)CCOCC3)cc2)C1 (stereo not drawn) [Example 524] | – | – | – | – | –
20 | > 10000 nM | 370 nM | 80 nM | O=C(Nc1cccnc1)OC1CCN(c2ccc(S(=O)(=O)C3(C(=O)NO)CCOCC3)cc2)CC1 [Example 465] | – | – | – | – | –
21 | > 10000 nM | 9000 nM | 30 nM | CCCN(CC1CC1)C(=O)C1CCN(c2ccc(S(=O)(=O)C3(C(=O)NO)CCOCC3)cc2)CC1 [Example 35] | – | – | – | – | –
22 | > 10000 nM | 250 nM | 3 nM | O=C(NO)C1(S(=O)(=O)c2ccc(N3CCC(OCc4ccc(COCC(F)(F)C(F)F)cc4)CC3)cc2)CCOCC1 [Example 608] | – | – | – | – | –
23 | > 10000 nM | 120 nM | 7.7 nM | O=C(NO)C1(S(=O)(=O)c2ccc(N3CCC(Oc4cc(F)cc(F)c4)CC3)cc2)CCOCC1 [Example 545] | – | – | – | – | –
24 | > 10000 nM | 3700 nM | 13.9 nM | CN(C(=O)C1CCN(c2ccc(S(=O)(=O)C3(C(=O)NO)CCOCC3)cc2)CC1)c1ccccc1 [Example 60] | – | – | – | – | –
25 | > 10000 nM | 2000 nM | 20 nM | Cc1ccc([N+](=O)[O-])c(OC2CCN(c3ccc(S(=O)(=O)C4(C(=O)NO)CCOCC4)cc3)CC2)c1 [Example 550] | – | – | – | – | –
26 | > 10000 nM | 36.9 nM | 4.5 nM | O=C(NO)C1(S(=O)(=O)c2ccc(N3CCC(Cc4ccccc4)CC3)cc2)CCOCC1 [Example 720] | – | – | – | – | –
27 | > 10000 nM | 1600 nM | 500 nM | CCN1CCN(c2ccc(S(=O)(=O)C3(C(=O)NO)CCOCC3)cc2)CC1 [Example 622] | – | – | – | – | –
28 | > 10000 nM | 1400 nM | 50 nM | O=C(NO)C1(S(=O)(=O)c2ccc(N3CCC(Oc4ccc([N+](=O)[O-])cc4C(F)(F)F)CC3)cc2)CCOCC1 [Example 481] | – | – | – | – | –
29 | > 10000 nM | 220 nM | 10.6 nM | O=C(NO)C1(S(=O)(=O)c2ccc(N3CCC(OCc4ccccc4Cl)CC3)cc2)CCOCC1 [Example 574] | – | – | – | – | –
30 | > 10000 nM | 150 nM | 60 nM | CO[C@@H]1CCN(c2ccc(S(=O)(=O)C3(C(=O)NO)CCOCC3)cc2)C1 [Example 533] | – | – | – | – | –
31 | > 10000 nM | > 10000 nM | 1200 nM | O=C(NO)C1(S(=O)(=O)c2ccc(N3CCC(CC4CC4)CC3)cc2)CCOCC1 [Example 816] | – | – | – | – | –
32 | > 10000 nM | 800 nM | 40 nM | O=C(NO)C1(S(=O)(=O)c2ccc(N3CCC(Oc4ccc([N+](=O)[O-])c(F)c4)CC3)cc2)CCOCC1 [Example 548] | – | – | – | – | –
33 | > 10000 nM | 40 nM | 4.3 nM | Cc1cccc(COC2CCC(Oc3ccc(S(=O)(=O)C4(C(=O)NO)CCOCC4)cc3)C2)c1 (stereo not drawn) [Example 706] | – | – | – | – | –
34 | > 10000 nM | 140 nM | 28.6 nM | O=C(NO)C1(S(=O)(=O)c2ccc(N3CCC(Oc4ccc(C(F)(F)F)cc4[N+](=O)[O-])CC3)cc2)CCOCC1 [Example 571] | – | – | – | – | –
35 | > 10000 nM | 5.7 nM | 7 nM | O=C(NO)C1(S(=O)(=O)c2ccc(N3CCC(Oc4ccc(Cl)c(Cl)c4)CC3)cc2)CCOCC1 [Example 617] | – | – | – | – | –
36 | > 10000 nM | 285 nM | 50 nM | CCCOC1CCN(c2ccc(S(=O)(=O)C3(C(=O)NO)CCOCC3)cc2)CC1 [Example 168] | – | – | – | – | –
37 | > 10000 nM | 250 nM | 22.5 nM | O=C(NCc1ccccc1)OC1CCN(c2ccc(S(=O)(=O)C3(C(=O)NO)CCOCC3)cc2)CC1 [Example 520] | – | – | – | – | –
